Publication PMC9692753, “Pentapeptide-Zinc Chelate from Sweet Almond Expeller Amandin Hydrolysates: Structural and Physicochemical Characteristics, Stability and Zinc Transport Ability In Vitro” (Molecules, 2022)
Marks after values point to notes of the source that are not given here. Where no end group is shown, it is not given here.

Tests used:
[1] = Zinc-chelating ability assay (PAR colorimetric method); type: binding; conditions: sample in 0.1 mol/L HEPES-KOH buffer, DTT 8 mmol/L, ZnSO4 250 μmol/L, 37 °C 10 min, absorbance at 500 nm, n ≥ 3
Experimental: Zinc-chelating ability was determined using the PAR colorimetric method. […] The mixed solution was stirred (180 r/min) at 37 °C for 10 min, and then 250 μL PAR (0.2 mmol/L, pH 7.5) was added. After incubation at 37 °C for 3 min, the absorbance at 500 nm was read. […] Zinc-chelating capacity was calculated as follows:(1) Zinc chelating ability mg/g=Cc−Cs× 65.38×10^−3×V /M where, Cc (μmol/L) is the zinc concentration in the reaction solution without samples; Cs is the zinc concentration in reaction solution after the chelating reaction (μmol/L); V is the volume of the reaction solution; M is the mass of the samples (g); and 65.38 is the mol mass of zinc (g/mol).

Caco-2 cells = experiment: Cell viability of Caco-2 cells (MTT method); type: cell-based
Experimental: In addition, effects of ZnSO4/zinc gluconate and peptide-zinc chelate on cell viability were measured using the MTT method [38].

[2] = Thermal stability of zinc solubility (boiling water); conditions: chelate 1 mg/mL in ultrapure water, zinc sulphate and zinc gluconate 100 μg/mL; boiling water 10, 20, 40, 60 min; zinc in supernatant / total zinc; PAR method; n ≥ 3; Figure 7
Experimental: SAEAH peptide-zinc chelate solution (1 mg/mL, dispersed in ultrapure water) was incubated in boiling water for 10, 20, 40 and 60 min [37]. After centrifugation at 6000× g for 15 min, the supernatant was collected for zinc content determination.

Molecule	Zinc chelating capacity [1]	Cytotoxicity toward Caco-2 cells (Caco-2 cells)	Zinc solubility stability against incubation at 100 °C (result in words) [2]
O=C(O)CN(CCN(CC(=O)O)CC(=O)O)CC(=O)O [EDTA]	57.17 ± 2.63 ^d mg/g		
O=C([O-])[C@H](O)[C@@H](O)[C@H](O)[C@H](O)CO.O=C([O-])[C@H](O)[C@@H](O)[C@H](O)[C@H](O)CO.[Zn+2] [zinc gluconate]		no significant (p > 0.05) cytotoxicity	not reduced significantly
VDLVAEVPRGL [peptide identified in sweet almond expeller amandin hydrolysates]	4.33 ± 0.33 ^e mg/g		
